≈ marks a conversion by molar mass, not a printed value. Like-named read-outs stand apart in the source and are kept apart here. Values belong to the compound of their own block, whether it stands above or below them.
Key:
[1] = test system: A549, MCF-7, MCF-7 KCR and DU-145 cells; assay: γH2AX immunostaining (DNA double-strand breaks); type: cell-based, human; details: 20 µM, 3 h
Procedure: In order to determine the degree of DNA damage induced by the treatments, DNA double-strand breaks were visualized by γH2AX immunostaining. For this, 1 × 10^5 cells/well were seeded onto coverslips in 24-well plates. […] Then, cells were fixed with 4% formaldehyde (Molar Chemicals, Halásztelek, Hungary), permeabilized with 0.3% Triton-X-100 (Calbiochem, Merck Millipore, Darmstadt, Germany) and were blocked using 5% bovine serum albumin (BSA) (Sigma-Aldrich, St. Louis, MO, USA). Then, the samples were incubated with anti-γH2AX antibody (Thermo Fisher Scientific, Waltham, MA, USA) in 1:300 dilution followed by Alexa 488 fluorophore-conjugated goat anti-mouse secondary antibody (Abcam, Cambridge, UK) in 1:600 dilution. The fluorescence intensity of the stained samples was detected by an Olympus FV10i confocal microscope.

A549 = assay: MTT cytotoxicity assay; type: cell-based, human; details: for IC50: 24 h incubation time; for effect on cell viability (in words): up to 20 µM, 24 h
Procedure: (§1) To test the biological effects of the Cu(II) complexes and the ligands on human cancer cells, DU-145 prostate, A549 lung, and MCF-7 breast adenocarcinoma cells, as well as the multidrug-resistant MCF-7 KCR breast cancer cells were utilized. All the cell lines were maintained in RPMI-1640 media (Biosera, Nuaille, France) complemented with 10% fetal bovine serum (FBS), 2 mM L-glutamine, 0.01% streptomycin and 0.005% penicillin, (Biosera, Nuaille, France) and were cultured under standard conditions in a 37 °C incubator at 5% CO2 and 95% humidity. The cell lines were originally obtained from ATCC.
(§2) The effect of the complexes and of their ligands alone on the viability (on the metabolic activity) of human cancer cells was assessed by MTT assay. The tested compounds were dissolved in 90% (v/v) DMSO/H2O at 10 mM concentration. Equimolar solutions of the ligand CuCl2 salt were used for the cytotoxicity assays. The metal salts without ligands were also tested. For this, 1 × 10^4 cells/well were seeded into 96-well plates and left to grow overnight. On the following day, cells were exposed to increasing concentrations of each compound (0; 2.5; 5; 10; 15; 20 µM). After a 24 h incubation, cells were washed with PBS buffer and then incubated with 0.5 mg/mL MTT (Sigma-Aldrich, St Louis, Missouri, MO, USA) for 1 h at 37 °C. The formazan crystals were solubilized in DMSO (Molar Chemicals, Halásztelek, Hungary), and the absorbance of samples was determined at 570 nm using a Synergy HTX plate reader (BioTek, Winooski, Vermont, VT, USA). Absorption corresponding to the untreated control samples was considered as 100%.

MCF-7 KCR = assay: MTT cytotoxicity assay; type: cell-based, human; details: for effect on cell viability (in words): up to 20 µM, 24 h
Procedure: as §1, §2

DU-145 = assay: MTT cytotoxicity assay; type: cell-based, human; details: DU-145, MTT; for IC50: 24 h incubation time; for effect on cell viability (in words): up to 20 µM, 24 h
Procedure: as §1, §2

MCF-7 = assay: MTT cytotoxicity assay; type: cell-based, human; details: MCF-7, MTT; for IC50: 24 h incubation time; for effect on cell viability (in words): up to 20 µM, 24 h
Procedure: as §1, §2

E. faecalis ATCC 29212 = assay: MIC determination; type: cell-based, Enterococcus faecalis; details: Gram-positive E. faecalis ATCC 29212, Mueller Hinton Broth
Procedure: (§3) Klebsiella pneumoniae (ATCC 49619), Escherichia coli (ATCC 25922), Staphylococcus aureus (ATCC 25928) and Enterococcus faecalis (ATCC 29212) strains were used as Gram-negative and Gram-positive bacterial cultures. The stock solutions of the tested compounds (dissolved in 90% (v/v) DMSO/H2O at 10 mM concentration) were diluted in 100 μL of Mueller Hinton Broth, and then two-fold serial dilutions were performed. As a starting point, 100 μM concentration of the compounds was used. Then, 10^−4 dilution of an overnight bacterial culture in 100 μL of medium was added to each well, with the exception of the medium control wells. Minimum inhibitory concentration (MIC) values of compounds were determined according to our previous work.

S. aureus ATCC 25928 = assay: MIC determination; type: cell-based, Staphylococcus aureus; details: Gram-positive S. aureus ATCC 25928, Mueller Hinton Broth
Procedure: as §3

[2] = direct redox reaction of the Cu(II) complexes with GSH (UV–vis, anaerobic); type: physicochemical; details: Cu(II) complex (25 µM) of the named ligand with GSH (1.25 mM), pH 7.4, anaerobic, 30% (v/v) DMSO/H2O, 25.0 °C
Procedure: The redox reaction of the Cu(II) complexes with GSH and ascorbic acid was studied at 25.0 ± 0.1 °C, at pH 7.40 (10 mM HEPES with 0.1 M KCl) on an Agilent Cary 8454 diode array spectrophotometer using a special, tightly closed tandem cuvette (Hellma Tandem Cell, 238-QS). The complex and the reducing agent were separated until the reaction was triggered. Both isolated pockets of the tandem cuvette were completely deoxygenated by bubbling argon for 10 min before mixing the reactants. Spectra were recorded before and then immediately after the mixing, and changes were followed till no further absorbance change was observed. The stock solutions of the reducing agents and the complexes were freshly prepared every day.
During the calculations, the absorbance (A)−time (t) curves were fitted and analyzed at the λmax of the complex. (A0 − Afinal) × e ^(−a×t) + Afinal equation was used where A0, Afinal and a parameters were refined and accepted at the minimal value of the weighted sum of squared residuals (difference between the measured and calculated absorbance values) at the given wavelength. Then observed rate constants (kobs) of the redox reaction were obtained from the data points of the simulated absorbance–time curves as the slope of the ln(A/A0) versus t plots.

[3] = type: physicochemical; details: for logβ [CuLH−1] / logβ [CuL]+: Cu(II) complex of the named ligand, 30% (v/v) DMSO/H2O, T = 25.0 °C, I = 0.1 M (KCl); for pCu5.0: calculated at pH 5.0, cCu(II) = 20 µM; for pCu5.0 / pCu6.0 / pCu7.4: cligand = 20 µM; for pCu6.0: estimated at pH 6.0, cCu(II) = 20 µM; for pCu7.4: estimated at pH 7.4, cCu(II) = 20 µM
Procedure: (§4) An Orion 710A pH-meter equipped with a Metrohm combined electrode (type 6.0234.100) and a Metrohm 665 Dosimat burette were used for the UV–vis titrations at 25.0 ± 0.1 °C. Ionic strength of 0.10 M (KCl) was used to keep the activity coefficients constant. The titrations were performed with carbonate-free KOH solution of known concentration (0.10 M) with 30% (v/v) DMSO content. […] The average water ionization constant (pKw) is 14.54 ± 0.05 in the 30% (v/v) DMSO/H2O mixture. Argon was always passed over the solutions during the titrations. An Agilent Cary 8454 diode array spectrophotometer was used to record the UV–vis spectra at an interval of 200–800 nm. The path length was 2 cm. Spectrophotometric titrations were performed using a 0.1 M KOH titrant solution with 30% (v/v) DMSO on samples with 30% (v/v) DMSO containing HCl, KCl and the ligand at 20 μM concentration in the pH range 2.0–12.5 in the absence or in the presence of 1 or 0.5 equiv. Cu(II) ions. Proton dissociation constants (Ka) of the TSC ligands, the overall stability constants (β) of the Cu(II) complexes and the UV–vis spectra of the individual species were calculated by the computer program PSEQUAD [41] as was done in our previous works.

[4] = test system: HCT-116 colon cancer cell line; parameters: method as in doi:10.1039/D0NJ01070G, PMID 34453218, PMID 33951554; details: cited from earlier work
physchem = type: physicochemical
Procedure: as §4

[5] = cited from earlier work; for logβ [CuLH−1] / logβ [CuL]+: 30% (v/v) DMSO/H2O, T = 25.0 °C, I = 0.1 M (KCl); for pCu7.4: pH 7.4, cCu(II) = 20 µM, cligand = 20 µM
[6] = cited from earlier work
[7] = DPPH free radical scavenging assay; details: for % Scavenging Effect: DPPH:compound = 1:1 ratio after 30 min, ethanol; for IC50: in ethanol, T = 25 °C, cDPPH = 50 µM, ccompound = 5−50 µM
Procedure: The DPPH (Sigma-Aldrich) free radical scavenging capacity was studied at 25.0 ± 0.1 °C on an Agilent Cary 3500 spectrophotometer with tightly closed tandem cuvette according to our approach with some modifications. The stock solution of DPPH (100 µM) was prepared in ethanol, and 0.5 mL of this solution was added to one pocket of the cuvette and 0.5 mL of the tested compound in different concentrations in ethanol was added to another. The final concentration of the studied compounds was in the range 5–50 µM, where for DPPH concentration, it was always 50 µM. A standard compound Trolox (Sigma-Aldrich) was used as a positive control. The percentage of the antioxidant activity (AA), IC50 values (the concentration of compound at which it reduced 50% of DPPH) and Trolox equivalent antioxidant capacity (TEAC) were calculated.

[8] = Cu(II) complex (25 µM) with GSH (1.25 mM), pH 7.4, anaerobic; cited from earlier work

SMILES: [Cl][Cu][Cl] [CuCl2, reference compound]
DNA double-strand breaks (γH2AX) vs untreated control cells [1]: None of these treatments caused a higher degree of DNA damage
IC50 (A549): > 20 µM
effect on cell viability (in words) (A549): No toxic effect
IC50 (MCF-7 KCR; 24 h incubation time): > 20 µM
effect on cell viability (in words) (MCF-7 KCR): No toxic effect
IC50 (DU-145): > 20 µM
effect on cell viability (in words) (DU-145): No toxic effect
IC50 (MCF-7): > 20 µM
effect on cell viability (in words) (MCF-7): No toxic effect
MIC (E. faecalis ATCC 29212): >100 µM
MIC (S. aureus ATCC 25928): >100 µM

SMILES: NC(=O)N/N=C/c1ccccc1O [SSC]
pKa ([6]; salicylaldehyde SC): 9.30

SMILES: NC(=S)N/N=C/c1ccccc1O [STSC, salicylaldehyde TSC, reference compound]
pKa ([6]; salicylaldehyde TSC): 8.84
TEAC (Trolox equivalent antioxidant capacity) ([7]; DPPH assay in ethanol, 25 °C): 0.6
% Scavenging Effect ([7]; 25 °C): 23.4%
IC50 [7]: 19 µM

SMILES: C[C@]12CC[C@@H]3c4cc(C=NNC(N)=O)c(O)cc4CC[C@H]3[C@@H]1CCC2O (stereo partly drawn) [estradiol-SC, 2-[(3,17 Dihydroxy-estra-1,3,5(10)-triene-2-yl)methylene]Hydrazine-1-carboxamide]
kobs [2]: fast reaction
pKa [CuL]+ [3]: 6.48
logβ [CuLH−1] [3]: 5.16 ± 0.03
logβ [CuL]+ [3]: 11.63 ± 0.03
pCu5.0 [3]: 5.7
pCu6.0 [3]: 6.3
pCu7.4 [3]: 7.8
melting point: 238 °C
IC50 (A549; Homo sapiens): > 20 µM
effect on cell viability (in words) (A549): only slightly toxic
IC50 (MCF-7 KCR; Homo sapiens, MCF7, 24 h incubation time): > 20 µM
effect on cell viability (in words) (MCF-7 KCR): only slightly toxic
effect on cell viability (in words) (DU-145): neither the estradiol-SC nor the Cu(II)-estradiol-SC complex exhibit any harmful effect
IC50 (DU-145; Homo sapiens): > 20 µM
IC50 (MCF-7; Homo sapiens, MCF7): > 20 µM
effect on cell viability (in words) (MCF-7): neither the estradiol-SC nor the Cu(II)-estradiol-SC complex exhibit any harmful effect
MIC (E. faecalis ATCC 29212; Enterococcus faecalis, ATCC29212): > 100 µM
MIC (S. aureus ATCC 25928): 50 µM (≈ 17.9 µg/mL)
MIC (S. aureus ATCC 25928; Staphylococcus aureus, ATCC25928): 50 µM (≈ 17.9 µg/mL)
pKa (physchem): 10.02 ± 0.03
% Scavenging Effect ([7]; 25 °C): 6.5%
IC50 [7]: > 50 µM

SMILES: CC12CCC3c4cc(C=NNC(N)=O)c(O)cc4CCC3C1CCC2=O (stereo not drawn) [estrone-SC]
logβ [CuLH−1] [5]: 4.82 ^1
logβ [CuL]+ [5]: 11.26 ^1
pCu7.4 [5]: 7.5 ^1
pCu5.0 [3]: 5.8
pCu6.0 [3]: 6.3
kobs [8]: fast reaction ^1

Further lines, with some results ahead:

pKa [CuL]+ [3]: 3.92 ^4
logβ [CuLH−1] [3]: 9.44 ± 0.07 ^4
logβ [CuL]+ [3]: 13.36 ± 0.08 ^4
pCu5.0 [3]: 8.0
pCu6.0 [3]: 9.7
pCu7.4 [3]: 12.5 ^4
pKa (physchem): 9.02 ± 0.03 ^4
SMILES: CN(C)C(=S)NN=Cc1cc2c(cc1O)CCC1C2CCC2(C)C(=O)CCC12 (stereo not drawn) [Me2-estrone-TSC, reference compound]
kobs [2]: 0.05 ^4 min^−1
IC50 [4]: 21 µM

pCu5.0 [3]: 7.7
pCu6.0 [3]: 9.2
SMILES: CNC(=S)NN=Cc1cc2c(cc1O)CCC1C2CCC2(C)C(=O)CCC12 (stereo not drawn) [Me-estrone-TSC]
logβ [CuLH−1] [5]: 9.66 ^3
logβ [CuL]+ [5]: 13.64 ^3
pCu7.4 [5]: 11.9 ^3
kobs [2]: 0.05 ^4 min^−1
IC50 [4]: 25 µM
